The data set has as its system rats inoculated intracisternally with Haemophilus influenzae type b lipooligosaccharide. In words: Rat meningitis model (H. influenzae LOS). In kind it is in vivo. As to conditions: for Leukocytosis: Experiment #3, 600 nmol i.v., CSF 4 hours after LOS. On the procedure:
The experiments were performed according to established protocols (Wispelway et al., 1988, J. Clin. Invest., 82: 1339-1346). Purified Haemophilus influenzae type b strain DL42 lipooligosaccharide (LOS) was prepared for inoculation by sonication for 30 minutes, dilution to the desired concentration (20 ng/50 μl) in normal saline or PBS, and sonication for an additional 15 to 30 minutes just prior to use.
Briefly, anesthetized female Wistar rats were placed under a micromanipulator and inoculated intracisternally with a 25 gauge needle. After removal of 50 μl of CSF (without visible blood contamination), rats were inoculated intracisternally with 50 μl (20 ng) of LOS using a 1 ml syringe with a 25 gauge needle. Ten to fifteen minutes after inoculation with LOS, the rats were treated by intravenous administration of the test substance: a solution of an FHA peptide in PBS, a solution of a control peptide in PBS, or an equal volume of PBS alone.
Three hours after LOS inoculation, 5 μCi of ^125 I-radiolabelled albumin in 50 μl normal saline was administered intravenously. One hour later, CSF was collected via intracisternal puncture and blood samples were collected via intracardiac puncture. CSF leukocytosis was determined by manually counting white blood cells using a hemacytometer, and blood-brain barrier permeability was determined as the percent of radioactivity in whole blood that was present in the CSF. Blood samples were obtained immediately prior to inoculation, immediately prior to treatment, and at 4 hours post-inoculation for determination of peripheral white blood cell concentrations.

The values below come from patent US5932217A, “Peptides which inhibit adhesion between leukocytes and endothelial cells” (priority 1994, dated 1999).

For the substance Ac-ETKEVDG-NH2 [Acetyl/Amide-FHA II], the Leukocytosis result is recorded as “approximately 10,000 cells/ml”. The substance also yielded a BBB permeability (Experiment #3, 600 nmol) of 6.00 ± 5.14%. Further, for the setting “listed as ac/am FHA II”, the Leukocytosis is 10,500 ± 8523 cells/ml. For the same substance, the neutropenia result (peripheral white blood cells) is recorded as “No neutropenia was observed”. The “Inhibition of blood-brain barrier permeability” value (rat, in vivo) is reported as “not observed”.
